Laboratory results taken from PMC4052943 (BioMed Research International, 2014).
Read-outs that look alike come from different tables or passages of the source.

Tests used:
[1] = system: Salmonella typhimurium TA98; settings: 250 µM;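 also: test compound and mutagen preincubated 30 min at 37°C before adding bacteria, then His+ revertant colonies counted after 48 h plating, inhibition relative to mutagen-only versus negative-control revertants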
Method: (§1) In the preincubation experiment, test compounds and mutagen, each having a volume of 0.1 mL of varying concentrations, were preincubated at 37°C for 30 min and then 0.1 mL of 1 × 10^7 CFU/mL density of the bacterial culture was added, followed by the addition of 2.5 mL of top agar at 45°C (containing 0.5% NaCl and 0.6% agar) supplemented with 0.5 mM histidine-biotin. […] The combined solutions were vortexed and poured onto minimal glucose plates (40% glucose solution and Vogel Bonner medium). The plates were incubated at 37°C for 48 h and the numbers of histidine-independent revertants colonies were scored.
(§2) Survival of the bacteria was routinely monitored for each experiment. Parallel controls were run with compounds alone at all concentrations to test the possible toxicity. The concentrations of the test samples for investigating the antimutagenicity were 50, 100, 200, and 500 μM. […] All the test samples and mutagens were dissolved in DMSO (final conc., 0.01%). […] Plates were set up in triplicate for each concentration and the entire experiment was repeated three times. Inhibition of mutagenicity was expressed as percentage decrease of reverse mutation and calculated as (1) Percent inhibition=[(a−b)/(a−c)]×100, where a = number of histidine revertants induced by mutagen, b = number of histidine revertants induced by mutagen in the presence of test compound, and c = number of revertants induced in negative control.

[2] = system: Salmonella typhimurium TA97a; experiment: Ames antimutagenicity assay (preincubation); settings: for inhibition at 50 µM / inhibition at 100 µM / inhibition at 250 µM / inhibition at 500 µM: Salmonella enterica, TYPHIMURIUM; for Number of His+ revertants colonies/plate: TA 97a;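 as to all read-outs here: compound and mutagen preincubated together 30 min at 37 °C before adding bacteria, then plated on minimal glucose agar for 48 h and His+ revertant colonies counted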
Method: as §1, §2

[3] = system: Salmonella typhimurium TA100; settings: 250 µM;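 also: compound and mutagen preincubated together 30 min at 37°C before bacteria added, then plates incubated 48 h at 37°C, inhibition relative to mutagen-alone revertants after subtracting the negative control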
Method: as §1, §2

[4] = system: Salmonella typhimurium strains TA97a, TA98, TA100, and TA102
Method: as §1, §2

[5] = system: Salmonella typhimurium strains TA97a, TA98, TA100, and TA102; experiment: Ames test, statements over all tester strains; settings: 50–500 μM
Method: as §1, §2

[6] = system: Salmonella typhimurium TA102; settings: 250 µM;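 also: compound and mutagen preincubated 30 min at 37 °C before adding bacteria, His+ revertant colonies counted after 48 h at 37 °C, inhibition relative to mutagen-alone minus negative-control revertants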
[7] = system: Salmonella typhimurium TA97a; settings: 250 µM;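 also: compound and mutagen preincubated together 30 min at 37 °C before adding bacteria, then plated on minimal glucose agar for 48 h and His+ revertant colonies counted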
Method: as §1, §2

How did the inhibition [1] turn out when `O=c1oc2c(O)c(O)cc3c(=O)oc4c(O)c(O)cc1c4c23` [Ellagic acid, ellagic acid] was run?
Its inhibition is 56.3%.

What about the inhibition at 50 µM ([2]; read-out: % inhibition of mutagenicity, TA 97a, 50 μM + 2AF, S9) of the same compound?
Its inhibition at 50 µM is 12.5%.

And the inhibition at 50 µM ([2]; read-out: % inhibition of mutagenicity, TA 97a, 50 μM + BP, S9)?
The inhibition at 50 µM was 14.1%.

And the inhibition at 50 µM ([2]; read-out: % inhibition of mutagenicity, TA 97a, 50 μM + MMS, no S9)?
The inhibition at 50 µM was 9%.

And the inhibition at 50 µM ([2]; read-out: % inhibition of mutagenicity, TA 97a, 50 μM + NaN3, no S9)?
The inhibition at 50 µM was 21.1%.

What about the inhibition at 100 µM ([2]; read-out: % inhibition of mutagenicity, TA 97a, 100 μM + 2AF, S9) of the same compound?
Its inhibition at 100 µM is 22.6%.

And the inhibition at 100 µM ([2]; read-out: % inhibition of mutagenicity, TA 97a, 100 μM + BP, S9)?
Its inhibition at 100 µM is 36%.

What about the inhibition at 100 µM ([2]; read-out: % inhibition of mutagenicity, TA 97a, 100 μM + MMS, no S9) of the same compound?
The inhibition at 100 µM was 25%.

What about the inhibition at 100 µM ([2]; read-out: % inhibition of mutagenicity, TA 97a, 100 μM + NaN3, no S9) of the same compound?
Its inhibition at 100 µM is 39.4%.

And the inhibition at 250 µM ([2]; read-out: % inhibition of mutagenicity, TA 97a, 250 μM + BP, S9)?
Its inhibition at 250 µM is 71.8%.

And the inhibition at 250 µM ([2]; read-out: % inhibition of mutagenicity, TA 97a, 250 μM + MMS, no S9)?
Its inhibition at 250 µM is 42.2%.

And the inhibition at 250 µM ([2]; read-out: % inhibition of mutagenicity, TA 97a, 250 μM + NaN3, no S9)?
Its inhibition at 250 µM is 53.6%.

What about the inhibition at 500 µM ([2]; read-out: % inhibition of mutagenicity, TA 97a, 500 μM + 2AF, S9) of the same compound?
Its inhibition at 500 µM is 81.7%.

What about the inhibition at 500 µM ([2]; read-out: % inhibition of mutagenicity, TA 97a, 500 μM + BP, S9) of the same compound?
The inhibition at 500 µM was 83.5%.

And the inhibition at 500 µM ([2]; read-out: % inhibition of mutagenicity, TA 97a, 500 μM + MMS, no S9)?
The inhibition at 500 µM was 66.5%.

And the inhibition at 500 µM ([2]; read-out: % inhibition of mutagenicity, TA 97a, 500 μM + NaN3, no S9)?
Its inhibition at 500 µM is 72.1%.

What about the “Number of His+ revertants colonies/plate” value ([2]; 50 μM + 2AF, S9) of the same compound?
The value was 312.3 ± 20.5 colonies/plate.

What about the “Number of His+ revertants colonies/plate” value ([2]; 50 μM + BP, S9) of the same compound?
Its value is 652.7 ± 35.3 colonies/plate.

And the “Number of His+ revertants colonies/plate” value ([2]; 50 μM + MMS, no S9)?
Its value is 426.3 ± 11.6 colonies/plate.

What about the “Number of His+ revertants colonies/plate” value ([2]; 50 μM + NaN3, no S9) of the same compound?
The value was 242.0 ± 11.8 colonies/plate.

What about the “Number of His+ revertants colonies/plate” value ([2]; 100 μM + 2AF, S9) of the same compound?
Its value is 296.7 ± 13.4 colonies/plate.

And the “Number of His+ revertants colonies/plate” value ([2]; 100 μM + BP, S9)?
Its value is 529.0 ± 28.6 colonies/plate.

And the “Number of His+ revertants colonies/plate” value ([2]; 100 μM + MMS, no S9)?
The value was 378.0 ± 10.8 colonies/plate.

And the “Number of His+ revertants colonies/plate” value ([2]; 100 μM + NaN3, no S9)?
Its value is 219.3 ± 7.1 colonies/plate.

What about the “Number of His+ revertants colonies/plate” value ([2]; 250 μM + BP, S9) of the same compound?
The value was 333.3 ± 22.2 colonies/plate.

What about the “Number of His+ revertants colonies/plate” value ([2]; 250 μM + MMS, no S9) of the same compound?
The value was 321.3 ± 10.8 colonies/plate.

What about the “Number of His+ revertants colonies/plate” value ([2]; 250 μM + NaN3, no S9) of the same compound?
Its value is 196.7 ± 8.2 colonies/plate.

What about the “Number of His+ revertants colonies/plate” value ([2]; 500 μM + 2AF, S9) of the same compound?
Its value is 212.0 ± 10.4 colonies/plate.

What about the “Number of His+ revertants colonies/plate” value ([2]; 500 μM + BP, S9) of the same compound?
The value was 275.3 ± 17.5 colonies/plate.

What about the “Number of His+ revertants colonies/plate” value ([2]; 500 μM + MMS, no S9) of the same compound?
The value was 239.7 ± 10.8 colonies/plate.

And the “Number of His+ revertants colonies/plate” value ([2]; 500 μM + NaN3, no S9)?
Its value is 168.0 ± 7.0 colonies/plate.

And the inhibition [3]?
Its inhibition is 67.7%.

And the mutagenic activity [4]?
The mutagenic activity was “No mutagenic activity”.

What about the “toxicity to Salmonella typhimurium strains” value ([5]; absence of S9) of the same compound?
The value was “No toxicity”.

What about the “maximum inhibition of mutagenicity” value ([5]; against sodium azide, MMS, BP, 2AF) of the same compound?
Its value is “up to 90%”.

What about the inhibition [6] of the same compound?
The inhibition was 74.1%.

What about the inhibition [7] of the same compound?
The inhibition was 44.9%.
